# Source: US11149253B2, “Small molecule compound combination for reprogramming digestive tract derived epithelial cells to endodermal stem/progenitor cells, reprogramming method and application” (INSTITUE OF TRANSFUSION MEDICINE, ACADEMY OF MILITARY …, priority 2016, dated 2021)
# How the values were obtained:
# [1] = test system: human gastric epithelial cells (hGECs); test: Reprogramming of human gastric epithelial cells (hGECs) to induced endodermal progenitor cells (hiEndoPCs); clonal formation efficiency; format: cell-based; settings: aGSEMFs supporting cells; for clonal formation efficiency when the compound was removed from 8M: removed one by one from 8 small molecule compounds (8M), day 15; for clonal formation efficiency when the compound was removed from BBRS: removed one by one from BBRS combination
# Procedure: 1. Proliferation of the initiating cells: Primary isolated human gastric epithelial cells (hGECs) or duodenal epithelial cells (hDECs) were used as initiating cells, and cultured in Kubta medium (prepared according to the literature, literature source: Kubota, H., and Reid, L. M. (2000). Clonogenic hepatoblasts, common precursors for hepatocytic and biliary lineages, are lacking classical major histocompatibility complex class I antigen. Proc. Natl. Acad. Sci. USA 97, 12132-12137) at 37° C. in a 5% CO2 incubator for 4-5 days, and the initiating cells were expanded.
# 2. Preparation of trophoblast cells: adult human gastric subepithelial myofibroblasts (aGSEMFs, the cells were obtained by separation of gastric tissue matrix layers, frozen in large quantities after culture and proliferation, and resuscitated in advance when necessary) as trophoblast cells were treated with mitomycin-C (10 μg/mL, for the purpose of losing mitosis of trophoblast cells) for 2-3 hours, washed with PBS for 3-4 times, the cells were digested by TrypLE enzyme, and then the cells were washed;
# 3. When human gastric epithelial cells (hGECs) or duodenal epithelial cells (hDECs) were cultured until day 5-6, the treated gastric subepithelial myofibroblasts were added at a suitable density (generally, density of 1-3×10^5 per square centimeter) to human gastric epithelial cells (hGECs) or duodenal epithelial cells (hDECs) being cultured, and placed at 37° C. in a 5% CO2 incubator overnight (12-16 hours);
# 4. Reprogramming culture: on the second day after the addition of gastric subepithelial myofibroblasts, the medium was changed to 8M reprogramming medium, and changed every 2-3 days, and continuous observation was performed. Generally, induced endodermal progenitor cells (hiEndoPCs) were obtained after culturing for 1 week or 2 weeks more (7-15 days).
# 1. Calculation of the total number of clones.
# 2. Calculation of the area of different clones using the microscope graticule: the area of each microscope microlattice was 0.0625 mm^2, and the number of lattices occupied by the clone multiplied by 0.0625 mm^2 was the area of each clone.
# 3. The evaluation of the efficiency of reprogramming is proformed by colligating number of clones and the area of the clones.
# Since the clonal morphology produced on day 15 of reprogramming was most typical (FIGS. 8E and 8F), colony formation efficiency was usually calculated at this time point. However, the growth rate of clones was faster from day 7 to day 15, and many clones were fused together to form a large clone upon the time point for calculation (FIG. 8B), so the number of clones was less upon calculation, but the total area was increasing. In order to reflect the reprogramming effect more objectively, the present experiment colligated the total number of clones and the number of clones and clone area under different areas, as the calculation method of reprogramming efficiency. Calculation of the area of different clones using the microscope graticule: the area of each microscope microlattice was 0.0625 mm^2, and the number of lattices occupied by the clone multiplied by 0.0625 mm^2 was the area of each clone. The calculation method for different sizes of cloned areas was shown in FIG. 9, and the calculation results were shown in Table 4.
# 1) The trophoblast cells screened in the second part were used as the supporting cells, and the small molecules were removed one by one based on the culture conditions for above-mentioned 8 small molecule compounds (8M), and the indispensable small molecules were first screened.
# 2) Based on the small molecule compound combinations screened in the step 1), the small molecule compounds were successively removed one by one so that the best small molecule compound combination (with highest reprogramming efficiency) and the combination with fewest small molecule compounds (guaranteed for the formation of the clone) were finally found. […]
# hiEndoPCs-Pans = test: C-peptide release of hiEndoPC-derived pancreatic cells (ELISA); format: cell-based, human; settings: insulin secretion promoter stimulation of hiEndoPCs-Pans
# Procedure: 2. The adhered cells were induced to differentiate to the pancreas according to four stages.
# 2.1 MCDB 131 medium (purchased from Gibco)+1.5 g/L of sodium bicarbonate+2 mM (concentration) 2 mM of Glutamax (Glutamine)+10 mM of final glucose concentration (glucose)+2% of BSA (bovine serum albumin)+0.25 mM of ascorbic acid (vitamin C)+50 ng/mL of FGF7 (fibroblast growth factor 7)+0.25 μM of SANT-1+1 μM of retinoic acid (RA)+100 nM of LDN193189+1:200 ITS-X (insulin-Transferrin-selenium-ethanolamine complex solution)+200 nM TPB, cultured for 2 days.
# 2.2 MCDB 131 medium+1.5 g/L of sodium bicarbonate+2 mM of Glutamax+10 mM of final glucose concentration+2% of BSA+0.25 mM of ascorbic acid+2 ng/mL of FGF7+0.25 μM of SANT-1+0.1 μM of retinoic acid+200 nM of LDN193189+1:200 ITS-X+100 nM of TPB, cultured for 2 days. […]
# 13. The OD value was measured at a wavelength of 450 nm on a microplate reader within 30 minutes, and the results were calculated.
Compound,clonal formation efficiency when the compound was removed from 8M [1],clonal formation efficiency when the compound was removed from BBRS [1],other results
COC(=O)C1=C(C)NC(C)=C([N+](=O)[O-])C1c1ccccc1C(F)(F)F (stereo not shown) [Bay K 8644],obviously decreased,significantly decreased,
COc1cc2nc(N3CCCN(C)CC3)nc(NC3CCN(Cc4ccccc4)CC3)c2cc1OC [Bix01294],obviously decreased,significantly decreased,
[Cl-].[K+] [KCL],,,release of C peptide (hiEndoPCs-Pans): significantly increased
O=C(NOC[C@H](O)CO)c1ccc(F)c(F)c1Nc1ccc(I)cc1F [PD0325901],increased,,
O=C(O)/C=C(/CCc1ccc(Cl)cc1)c1ccccc1 [PS48],increased,,
O=C(O)C(Cc1c[nH]c2ccccc12)N1C(=O)c2ccccc2C1=O (stereo not shown) [RG108],obviously decreased,significantly decreased,
NC(=O)c1ccc(-c2nc(-c3ccc4c(c3)OCO4)c(-c3ccccn3)[nH]2)cc1 [SB431542],clones were not produced,no clones were formed,clonal formation efficiency compared with BBRS ([1]; SB431542 as basis): not as good as the optimal combination of BBRS; clone formation with the fewest small molecules ([1]; SB431542 as basis): capable for forming the clones
CCCCNC(=O)NS(=O)(=O)c1ccc(C)cc1 [Tolbutamiden],,,release of C peptide (hiEndoPCs-Pans): significantly increased
"CCCC(CCC)C(=O)O [VPA, Valproic Acid]",did not change significantly,,
Fructose diphosphate [FBP],increased,,
